Test results as given in patent US4593104A, “2-halo-N-(azole-1-yl-methyl)-substituted acetanilides” (BASF Aktiengesellschaft, priority 1976, dated 1986).

How the values were obtained:
Test in all cases: preemergence treatment in the greenhouse, % damage
Alopec. myosur. = format: in vivo
Procedure, shortened: (§1)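 Test species were sown separately in sandy loam and held at 25–40 °C (heat-loving) or 15–30 °C (temperate). Actives in water went onto the soil surface immediately (preemergence) or onto 3–10 cm plants (postemergence). A 0–100 scale rates emergence loss or destruction over 4–6 weeks.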

Bromus spp. = format: in vivo
Procedure, shortened: as §1

Echin. c.g. = format: in vivo
Procedure, shortened: as §1

Matric. spp. = format: in vivo
Procedure, shortened: as §1

Setaria spp. = format: in vivo
Procedure, shortened: as §1

Zea mays = format: in vivo; conditions: 2.0 kg/ha
Procedure, shortened: as §1

Arach. hypog. = format: in vivo, Arachis hypogaea
From the text: The vessels employed were plastic flowerpots having a volume of 300 cm^3; the substrate was a sandy loam containing about 1.5% humus. The seeds of the test plants (see Table 1) were sown shallow, and separated according to species. In the case of Cyperus esculentus, pregerminated tubers were planted. In the preemergence treatment, the active ingredients were then immediately applied to the surface of the soil. They were suspended or emulsified in water as the vehicle, and sprayed through atomizing nozzles. After the agents had been applied, the vessels were lightly sprinkler-irrigated to set germination and growth going, and to activate the chemical agents. The vessels were then covered with transparent plastic hoods until the plants had taken root. This cover ensured uniform germination of the test plants (to the extent that this was not impaired by the chemicals), and prevented readily volatile substances from evaporating.
For postemergence treatment, the plants were first grown to a height of from 3 to 10 cm, depending on their habit, before treated. Hoods were not placed on the pots. The experiments were set up in the greenhouse, hotter areas (25° to 40° C.) being preferred for heat-loving species, and 15° to 30° C. for plants from moderate climates. The experiments were carried out for from 4 to 6 weeks. During this period the plants were tended and their reaction to the various treatments was assessed. The following tables contain the substances investigated, the application rates in kg/ha of active ingredient, and the test plant species. Assessments were made on a 0 to 100 scale, 0 denoting no damage or normal emergence, and 100 denoting no emergence or complete destruction of at least the visible plant parts.

Brassica napus = format: in vivo; conditions: 1.0 kg/ha
Procedure, shortened: as §1

Cyp. diff. = format: in vivo
Procedure, shortened: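 Preemergence: active sprayed onto the soil surface immediately after sowing; pots sprinkler-irrigated and covered with transparent hoods until plants rooted. Postemergence: unhooded plants sprayed at 3–10 cm. Both run 4–6 weeks in greenhouse; damage 0 = none, 100 = no emergence or total kill of visible parts.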

Solanum nigrum = format: in vivo
Procedure, shortened: as §1

Amar. retro. = format: in vivo
Procedure, shortened: as §1

Cenchr. ech. = format: in vivo
Procedure, shortened: as §1

Ipom. spp. = format: in vivo
Procedure, shortened: as §1

Lept. spp. = format: in vivo
Procedure, shortened: as §1

Panic. virg. = format: in vivo
Procedure, shortened: as §1

Sida spin. = format: in vivo
Procedure, shortened: as §1

Glyc. max = format: in vivo, Glycine max
Procedure, shortened: as §1

Gossyp. hirs. = format: in vivo, Gosspyium hirsutum
Procedure, shortened: as §1

`Cc1cccc(C)c1N(Cn1ncnn1)C(=O)CCl` was tested, and the “% damage” value (Alopec. myosur.; 2.0 kg/ha) was 98%, the “% damage” value (Bromus spp.; 2.0 kg/ha) was 98% and the “% damage” value (Echin. c.g.; 2.0 kg/ha) was 100%. The “% damage” value (Matric. spp.; 2.0 kg/ha) was 100%, the “% damage” value (Setaria spp.; 2.0 kg/ha) was 95% and the “% damage” value (Zea mays) was 15%. For the same molecule, the “% damage” value (Arach. hypog.; 2.0 kg/ha) was 15%.
`Cc1ncn(CN(C(=O)CCl)c2c(C)cccc2C)n1` was tested, and the “% damage” value (Alopec. myosur.; 1.0 kg/ha) was 97%, the “% damage” value (Brassica napus) was 5% and the “% damage” value (Bromus spp.; 1.0 kg/ha) was 98%. For the same molecule, the “% damage” value (Cyp. diff.; 1.0 kg/ha) was 100%, the “% damage” value (Echin. c.g.; 1.0 kg/ha) was 100% and the “% damage” value (Matric. spp.; 1.0 kg/ha) was 92%. The “% damage” value (Setaria spp.; 1.0 kg/ha) was 100%, the “% damage” value (Solanum nigrum; 1.0 kg/ha) was 100% and the “% damage” value (Arach. hypog.; 1.0 kg/ha) was 0%.
For `CCc1cccc(CC)c1N(COC)C(=O)CCl` [bekannt, reference compound], the “% damage” value (Amar. retro.; 0.25 kg/ha) was 68%, the “% damage” value (Amar. retro.; 0.5 kg/ha) was 81% and the “% damage” value (Amar. retro.; 1.0 kg/ha) was 88%. For the same molecule, the “% damage” value (Amar. retro.; 2.0 kg/ha) was 92%, the “% damage” value (Cenchr. ech.; 0.25 kg/ha) was 92% and the “% damage” value (Cenchr. ech.; 0.5 kg/ha) was 95%. The “% damage” value (Cenchr. ech.; 1.0 kg/ha) was 100%, the “% damage” value (Cenchr. ech.; 2.0 kg/ha) was 100% and the “% damage” value (Cyp. diff.; 0.25 kg/ha) was 65%. The “% damage” value (Cyp. diff.; 0.5 kg/ha) was 70%, the “% damage” value (Cyp. diff.; 1.0 kg/ha) was 78% and the “% damage” value (Cyp. diff.; 2.0 kg/ha) was 100%. The “% damage” value (Echin. c.g.; 0.25 kg/ha) was 45%, the “% damage” value (Echin. c.g.; 0.5 kg/ha) was 75% and the “% damage” value (Echin. c.g.; 1.0 kg/ha) was 90%. For the same molecule, the “% damage” value (Echin. c.g.; 2.0 kg/ha) was 95%, the “% damage” value (Ipom. spp.; 1.0 kg/ha) was 20% and the “% damage” value (Ipom. spp.; 2.0 kg/ha) was 30%. For the same molecule, the “% damage” value (Lept. spp.; 0.25 kg/ha) was 100%, the “% damage” value (Lept. spp.; 0.5 kg/ha) was 100% and the “% damage” value (Lept. spp.; 1.0 kg/ha) was 100%. The “% damage” value (Lept. spp.; 2.0 kg/ha) was 100%, the “% damage” value (Panic. virg.; 0.25 kg/ha) was 30% and the “% damage” value (Panic. virg.; 0.5 kg/ha) was 45%. The “% damage” value (Panic. virg.; 1.0 kg/ha) was 92%, the “% damage” value (Panic. virg.; 2.0 kg/ha) was 100% and the “% damage” value (Sida spin.; 1.0 kg/ha) was 10%. The “% damage” value (Sida spin.; 2.0 kg/ha) was 70%, the “% damage” value (Solanum nigrum; 0.25 kg/ha) was 50% and the “% damage” value (Solanum nigrum; 0.5 kg/ha) was 73%. For the same molecule, the “% damage” value (Solanum nigrum; 1.0 kg/ha) was 90%, the “% damage” value (Solanum nigrum; 2.0 kg/ha) was 90% and the “% damage” value (Glyc. max; 0.25 kg/ha) was 0%. For the same molecule, the “% damage” value (Glyc. max; 0.5 kg/ha) was 0%, the “% damage” value (Glyc. max; 1.0 kg/ha) was 0% and the “% damage” value (Glyc. max; 2.0 kg/ha) was 0%. The “% damage” value (Gossyp. hirs.; 0.25 kg/ha) was 0%, the “% damage” value (Gossyp. hirs.; 0.5 kg/ha) was 6% and the “% damage” value (Gossyp. hirs.; 1.0 kg/ha) was 20%. The “% damage” value (Gossyp. hirs.; 2.0 kg/ha) was 45%.
